A value given as a limit tells only on which side of the number the result lay.

On to `C=CCN1CCc2cc(OC)c(OC)c3c2C1Cc1cc(OC)c(OC)cc1-3` (single isomer, unassigned; (+)), for which the melting point (usually the temperature, or range, at which the solid turns liquid) lay in the range of 139 to 143 °C. The figure for `CC1(C)CCC(=O)c2c1oc(-c1ccncc1)c2-c1ccccc1` is 156 to 157 °C; for `COc1cc(OC)c2c(=O)[nH]c(-c3ccc(OCCNC(C)C)c(-c4ccccc4)n3)nc2c1` it is 179 to 180 °C; for `O=C(c1ccccc1)c1ccccc1NC(=O)C(Cl)Cl` it is 112 to 114 °C.

The molecule `Cc1ccc(-c2nc3ccccc3o2)c(F)c1` yielded a melting point of 115 to 117 °C. The figure for `CN(C(=O)Nc1ccc(Cl)c(Cl)c1)S(=O)C(C)(C)C` (configuration not stated) is 118 °C; for `S=C(Nc1ccccc1)Nc1ncccc1OCc1c(Cl)cccc1Cl` it is 148 to 149 °C. Regarding `COC(=O)C1(Cl)CCC(=O)O1` (configuration not stated), the melting point lay within 50.5 to 51 °C. To `Cc1ccc(Cl)cc1N1CN(Cc2ccccc2)CN(C)C1=S` belongs 148 to 149 °C.

As for `CCCC(=O)c1cnc2c(OCCCN3CCCCC3)cccc2c1Nc1ccccc1C`, the melting point is 76 to 78 °C. `O=C(CCCN1CCCCC1)c1ccc2c(c1)Cc1cc(C(=O)CCCN3CCCCC3)ccc1O2` showed a melting point of 115 to 117 °C.

The molecule `COc1cc(C2CCN(C)CC2)ccc1-c1nc2c(N[C@H]3[C@@H](C(N)=O)[C@@H]4C=C[C@H]3C4)c(Cl)cnc2[nH]1` gave a melting point of 232 to 235 °C. In the case of `NC(=NCC(F)(F)F)Nc1ccnc(CCCCO)n1`, the melting point is 135 to 136 °C. `O=C1c2ccc(NC(=O)C3CCCC3)cc2C(=O)c2cc(NC(=O)C3CCCC3)ccc21` registered a melting point of 281 °C. As for `Cc1cc(C2(C(F)(F)F)CC(c3ccc(F)cc3)=NO2)ccc1NC(=O)c1cccc(N)c1C(=O)NC(C)C` (configuration not stated), the melting point was in the range of 122 to 124 °C. As for `Cn1cncc1C(=O)NCc1cccc2c1C(=O)N(C1CCC(=O)NC1=O)C2=O` (configuration not stated), the melting point was greater than 260 °C. To `CC(C)(C)OC(=O)NC1Cc2ccccc2C1Oc1ccccc1Cc1ccccc1` (configuration not stated) belongs 113 to 114 °C; to `CC(C)(C)OC(=O)N1CCCN(CC2=Nc3cccc4c(=O)[nH]nc(c34)N2)CC1`, 219 to 221 °C; to `CCOC(=O)Cc1ccc(C(=O)c2ccccc2)cc1[N+](=O)[O-]`, 61 to 62 °C. `CSc1ccc(NC(=O)N(C)O)cc1C(F)(F)F` returned a melting point of 125 °C. `OC1(c2ccncc2)c2ccccc2CCc2ccccc21` yielded a melting point of 174 to 177 °C. On to `CCCc1cc(CCCOc2c(C)cc(-c3nc(C)no3)cc2C)on1`, for which the melting point was 35 to 37 °C. `CCOC(=O)N1CCSC1C1=C(C)NC(=O)CS1` (configuration not stated) showed a melting point of 146 to 147 °C. For `CC(=O)NC[C@H]1CC(c2ccc(-c3ccncc3)cc2)=NO1`, the melting point lay within 244 to 245 °C. Consider `CCCCCCCCCCCC(CC(=O)O)OC(C)=O` (racemic), for which the melting point was determined as 37 °C. In the case of `CC1COc2c(N3CCC(n4ccnn4)C3)c(F)cc3c(=O)c(C(=O)O)cn1c23` (single isomer, unassigned; (-)), the melting point lay in the range of 225 to 229 °C.

In turn, `Clc1ccc2c(c1)C(c1ccccc1Cl)=NCc1c[nH]cc1-2` yielded a melting point of 204 to 206 °C. The figure for `Fc1cc(OCCBr)ccc1OCc1ccccc1` is 63 to 65 °C. `CN(Cc1ccc(-c2ccc(OCC#N)c(Br)c2)cc1)C(=O)c1cn(C)c2ccccc12`: the melting point is 202 to 206 °C. For `COc1cc2c(cc1OC)-c1c(O)c(OC)cc3c1C(C2)CN(C)C3` (configuration not stated), the melting point fell in the range of 196 to 210 °C. For `O=C(CO)N[C@H]1CC[C@H](CCN2CCC(c3cccc4c3CCO4)CC2)CC1`, the melting point is 154 °C. `COc1ccn2nc(-c3ccccc3)c(-c3ccc(=O)n(C(C)C)n3)c2c1`: the melting point was in the range of 180 to 182 °C. Consider `O=C1Nc2cccnc2N(C(=O)NCCN2CCC(CNCC3CCCCC3)C2)c2ccccc21` (configuration not stated), for which the melting point fell in the range of 166 to 167 °C.

Molecule `COC(=O)c1ccc2ncc(C3CCN(C)CC3)c-2[nH]1` had a melting point of 200 to 201 °C. To `O=C1CCCCC(CCc2nc3cc(Br)cnc3[nH]2)N1` (configuration not stated) belongs 245 °C; to `CC(C)c1nc2cc(COc3ccc(C=O)cc3)ccc2o1`, 86 to 88 °C; to `COc1cc(NC(=O)Nc2ccc(C3=CCN(C(=O)Nc4ccc(OCC(O)CO)cc4Cl)CC3)cc2)cc(OC)c1` (configuration not stated), 108 to 111 °C. In turn, `CCOc1ccc2c(c1)n(C(C)(C)CC(C)(C)C)c(=O)n2S(=O)(=O)c1ccc(NC(=O)N(CC)CC)cc1OC` returned a melting point of 225 °C.

As to `CCC1C(=O)c2c(cc(OCC(=O)O)c(Cl)c2Cl)C1c1ccccc1` (configuration not stated), the melting point lay within 199 to 203 °C. For `CC(=O)N1CCC(c2n[nH]c3cc(Cl)ccc23)CC1`, the melting point fell in the range of 172 to 174 °C. The molecule `COc1ccc(CNc2cc(C(O)CNC(C)(C)CCn3cnc4ccccc43)ccc2O)cc1` (configuration not stated) came in with a melting point of 154 to 155 °C. For the molecule `CCCC(=O)Nc1n[nH]c2cc(-c3ccc(OCc4ccccc4)cc3)c(-c3ccc(OCc4ccccc4)cc3)cc12`, the melting point was 140 °C. The molecule `COC(=O)CC1(OCc2ccccc2)C=CC=C(c2ccccc2)C1` (configuration not stated) yielded a melting point of 50 to 52 °C. The figure for `CCCC1(CCC(C)=O)Cc2cc(CC(=O)O)c(Cl)c(Cl)c2C1=O` (configuration not stated) is 137 to 139 °C. In turn, `CCN1CCN(C2=Nc3cc(Cl)ccc3Sc3ccccc32)CC1` showed a melting point of 100 to 101 °C. The molecule `Cc1cc(C)nc([NH+]([O-])C(=O)Cc2cccs2)c1` (configuration not stated) showed a melting point of 154 to 155 °C. To `CCOC(=O)c1cc(C)cc(-c2ccc(N(C)C)cc2)n1` belongs 143 to 144 °C; to `COc1ccc(S(N)(=O)=O)cc1C(=O)NC1CCN(CC2CC2)C1` (configuration not stated), 150 °C. To `Nc1ccc2sc(Cl)nc2c1` belongs 146 to 149 °C; to `OC1CN(CCC#Cc2ccccc2)CCC1c1cccc(C(F)(F)F)c1` (configuration not stated), 77 to 79 °C; to `O=C(NNC(=O)c1ccc(Oc2ccccc2)cc1)c1ccc(O)cc1`, 203 to 205 °C.

`COc1ccc2ccc(N3C(=O)c4ccccc4C3OC(=O)Oc3ccccc3)nc2n1` (configuration not stated) returned a melting point of 145 °C.

`CCCS(=O)(=O)Cc1ccc(C(=O)Nc2ccc3cc(CN4CCCC4)cnc3c2C)cc1` displayed a melting point of 191 °C. Take `CC(C)Cc1cc(OCc2ccccc2)c2c(c1)OC(C)(C)CC2=O`: the melting point was in the range of 77.5 to 78 °C. With `O=c1c(CCl)c[nH]c2c([N+](=O)[O-])cccc12`, the melting point was 228 to 235 °C.

For the molecule `CC(C)(C)c1ccc2c(c1)C(CO)c1cc(C(C)(C)C)ccc1S2`, the melting point fell in the range of 158 to 159 °C. Regarding `Cc1noc(C)c1-c1ccncc1OC1SCC(O)C(O)C1O` (configuration not stated), the melting point was in the range of 175 to 179 °C. In the case of `Cc1cc(C=NNC(N)=S)ncc1NO`, the melting point lay in the range of 197 to 198 °C. Regarding `N#Cc1cc(NCc2ccncc2)n(-c2c(Cl)cc(C(F)(F)F)cc2Cl)n1`, the melting point is greater than 300 °C. In turn, `O=C(NCc1ccccc1)c1cc(N2CCN(Cc3ccc(F)cc3)C2=O)n[nH]1` came in with a melting point of 262 to 263 °C. For `C/C(=C\c1ccc(OC(C)C)cc1Oc1ncc(C(F)(F)F)cc1Cl)C(=O)NS(=O)(=O)NCCc1cccs1`, the melting point fell in the range of 130 to 131 °C. `CN1C(=S)Nc2ccncc2S1(=O)=O`: the melting point was in the range of 195 to 198 °C. To `O=c1c2c(Cl)cc(N3CCNCC3)cc2n(Cc2ccccc2)c(=O)n1Cc1cccc(I)c1` belongs 98 to 104 °C.

On to `O=C(O)COCCCCN(c1cnc(-c2ccccc2)c(-c2ccccc2)n1)C1CCCCC1`, for which the melting point lay in the range of 130 to 131 °C. Turning to `CCOC(=O)c1ncc2[nH]c3cccc(COC(C)=O)c3c2c1COC`, the melting point fell in the range of 129 to 133 °C. Regarding `O=Cc1cccc(-c2nc3sccn3c2-c2ccnc(N[C@@H]3CCCN(S(=O)(=O)c4ccc(Cl)cc4)C3)n2)c1`, the melting point lay in the range of 124 to 126 °C.

`COc1ccc(-c2cc(Nc3c(C)cc(C)cc3C)nc(C)n2)cc1OC`: the melting point is 168 to 170 °C. In turn, `Cc1cc(S(F)(F)(F)(F)F)c(S(C)(=O)=O)cc1C(=O)NC(=N)N` registered a melting point of 254 to 256 °C.

On to `c1ccc(-c2ccc(-c3csc(Nc4cc5ccccc5cn4)n3)s2)nc1`, for which the melting point lay in the range of 246 to 248 °C. `CC(=O)c1cccc(NC(=O)c2cc(C(N)=O)cc(C(=O)N(c3cccc(C(C)=O)c3)c3cccc(C(C)=O)c3)c2)c1` registered a melting point of 270 °C.

In turn, `COc1cc(C(=O)O)c(OC)cc1C` had a melting point of 120 °C. As to `CS(=O)CC(=O)c1ccccc1N` (configuration not stated), the melting point is 99 to 100 °C. For the molecule `Cc1c(C(=O)O)ncc2[nH]c3ccc(C4CC=CCC4)cc3c12` (configuration not stated), the melting point lay within 284 to 285 °C. Take `CCS(=O)(=O)c1ccc(-c2coc3ccc(-c4nnc(C)o4)cc23)cc1F`: the melting point fell in the range of 200 to 201 °C. Molecule `CNC(=O)N(O)Cc1ccc(-c2ccccc2)s1` registered a melting point of 169 °C.

Regarding `COc1cc(OC)cc(N2CCN(C(=S)Nc3cc4c(nc3OC)CCCC4)CC2)c1`, the melting point lay within 160 to 161 °C.

Molecule `CCN(CC)CCn1c2c(c3ccccc31)CCS(=O)(=O)CCC2` returned a melting point of 118 to 120 °C.

With `COc1ccc(CN2CC(c3ccccc3)=C(O)C2=O)cc1`, the melting point fell in the range of 195 to 198 °C. `CC(=O)c1oc2c(sc3ccccc32)c1O` gave a melting point of 196 to 197 °C. The molecule `CC(=O)SC1C2=C(CCCC2)C(=O)N1c1ccc(Br)cc1F` (configuration not stated) displayed a melting point of 117 to 118 °C. `CCCCCCCCCCCCCCCC(=O)N[C@H]1CCCNC(=O)C1` gave a melting point of 99 to 100 °C.

On to `Cn1c(Nc2cc(C(F)(F)F)ccc2Cl)nc(C(F)(F)F)cc1=O`, for which the melting point was in the range of 158 to 159 °C. To `CCCCc1nc2cc(C)c(C)cc2n1Cc1ccc(C(=O)O)cc1` belongs 220 °C; to `Cn1c2ccc(Cl)cc2c2cc(C(=O)N3CCOCC3)sc21`, 178 to 182 °C. Turning to `CCCCCCCCCCCCCCCCOC[C@H]1CCO[C@H](c2ccccc2)O1`, the melting point is 51 to 54 °C.

Turning to `CC(C)(C)n1nc2c(N)nc3ccccc3c2c1CCCNS(C)(=O)=O`, the melting point lay within 223 to 224 °C. In the case of `CC1c2ccccc2CC(C)(O)Cc2ccccc21` (configuration not stated), the melting point is 100 to 135 °C.

These data come from a melting point compilation (Tetko et al.; mined from patent text by program, amines drawn as free bases though some values may be those of a salt).
